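Protocol summary: plate cells (96-well), add compound at 5 concentrations, incubate 48 h, interpolate endpoints linearly. GI50 is the concentration that inhibits growth by half. TGI: total growth inhibition.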
How the values were obtained:
Assay in all cases: NCI-60 cell line screen, 48 h
OVCAR-8 ovarian = test system: OVCAR-8 ovarian
SF-268 CNS = test system: SF-268 CNS
UACC-257 melanoma = test system: UACC-257 melanoma
HCC-2998 colon = test system: HCC-2998 colon
A498 renal = test system: A498 renal
DU-145 prostate = test system: DU-145 prostate
EKVX NSCLC = test system: EKVX NSCLC
COLO 205 colon = test system: COLO 205 colon
HOP-92 NSCLC = test system: HOP-92 NSCLC
RPMI-8226 leukemia = test system: RPMI-8226 leukemia

SMILES | TGI (OVCAR-8 ovarian) [µM] | TGI (SF-268 CNS) [µM] | TGI (UACC-257 melanoma) [µM] | TGI (HCC-2998 colon) [µM] | TGI (A498 renal) [µM] | TGI (DU-145 prostate) [µM] | TGI (EKVX NSCLC) [µM] | TGI (COLO 205 colon) [µM] | TGI (HOP-92 NSCLC) [µM] | TGI (RPMI-8226 leukemia) [µM] | GI50 (OVCAR-8 ovarian) [µM] | GI50 (SF-268 CNS) [µM] | GI50 (UACC-257 melanoma) [µM] | GI50 (HCC-2998 colon) [µM] | GI50 (HOP-92 NSCLC) [µM] | GI50 (DU-145 prostate) [µM] | GI50 (EKVX NSCLC) [µM] | GI50 (COLO 205 colon) [µM] | GI50 (RPMI-8226 leukemia) [µM]
CC(C)=CCC(O)C1=CC(=O)c2c(O)ccc(O)c2C1=O (stereo unspecified) | 3.35 | 6.09 | 3.24 | 3.68 | 4.08 | 2.5 | 3.02 | 0.357 | – | – | – | – | – | – | – | – | – | – | –
COC(=O)C(CCCN1C(=O)c2ccccc2C1=O)C(=O)OC | > 100 | > 100 | > 100 | > 100 | > 100 | – | > 100 | > 100 | > 100 | – | – | – | – | – | – | – | – | – | –
O=[N+]([O-])c1ccc(Cl)cc1N/N=C/c1ccnc2ccccc12 | > 100 | > 100 | > 100 | > 100 | – | > 100 | > 100 | > 100 | – | > 100 | – | – | – | – | – | – | – | – | –
NC(=O)c1ccccc1NC(=O)C(=O)C(C(=O)c1ccc(Cl)c(Cl)c1)C1OC(=O)c2ccccc21 (stereo unspecified) | > 100 | > 100 | > 100 | > 100 | > 100 | – | > 100 | > 100 | > 100 | > 100 | – | – | – | – | – | – | – | – | –
CCCCCCCCCCCCC(O)c1ccc(C#CCCCCCCCCCO)o1 (stereo unspecified) | 33.6 | 49.4 | 51 | 48.2 | – | 33 | 43.1 | > 100 | 37.9 | 71.3 | 16.5 | 23.2 | 24.1 | 27.5 | 19.8 | 18.8 | 22.2 | > 100 | 27.2

From PubChem BioAssay (NCI)
